Laboratory results published in US10254285B2, “Methods for detecting and treating cancer metastasis” (Cedars-Sinai Medical Center, priority 2013, dated 2019).

Key:
WPMY-1 cells = test: Uptake of PKH26-labeled large oncosomes (LO) by recipient cells, FACS / fluorescent imaging; format: cell-based, human; conditions: WPMY-1 cells treated with PKH26-labeled LO for 1 h at 37° C. in presence of the compound
Protocol: As shown in FIG. 23 LO internalization differs between cells. LO isolation was performed using a filtration approach where the larger vesicles are retained by the filter and the smaller ones flow through. To test LO uptake, LO were labeled with a lipophilic dye, PKH26 and then used to treat target cells for 1 h at 37° C. LO uptake levels have been measured as the acquisition of fluorescence by target cells either by FACS or confocal imaging.
LO isolation was preformed using a filtration approach where the larger vesicles are retained by the filter and the smaller ones flow through. To test LO uptake LO were labeled with a lipophilic dye, PKH26 and then used to treat target cells for 1 h at 37° C. or 4° C. in presence or absence of the indicated compounds. LO uptake levels were measured as the acquisition of fluorescence by target cells either by FACS and fluorescent imaging. Dynamin2 silencing has been performed by transient transfection of WPMY-1 cells with an oligos against Dynamin2.

c-Myc = test: Luciferase reporter assay for c-Myc promoter activation in NAF; format: cell-based; conditions: NAF exposed to LO (20 μg/ml) in presence of Dyn (20 μM)
Protocol: LO and Exo isolation was performed by differential high-speed centrifugation (10,000×g and 100,000×g) followed discontinuous density gradient centrifugation. Conditioned media from LNCaPMyrAkt1 was used as source for LO and Exo. Nuclear extract from WPMY-1 cells treated with LO for the indicated time was used to perform the transcription factor activation profiling array from Signosis. Luciferase reporter assay for c-Myc promoter activation has been performed in NAF transfected with c-Myc promoter or vector plasmid treated with either LO or Exo 20 μg/ml for 6 h. RT-qPCR for c-Myc target cells in NAF treated with either LO or Exo 20 μg/ml for 6 h or 24 h.
LO and Exo isolation was performed by differential high-speed centrifugation (10,000×g and 100,000×g) followed by discontinuous density gradient centrifugation. Conditioned media from LNCaPMyrAkt1 was used as source for LO and Exo. […] After for 6 h-8 h tube formation rate is recorded by imaging, and quantified by counting the branching points in randomly chosen fields from each condition.

HUVEC = test: Tube formation assay in endothelial cells; format: cell-based; conditions: HUVECs treated with LO (20 μg/ml) in presence of Dyn
Protocol: (§1) LO and Exo isolation was performed by differential high-speed centrifugation (10,000×g and 100,000×g) followed by discontinuous density gradient centrifugation. Conditioned media from LNCaPMyrAkt1 was used as source for LO and Exo. Tube formation assay in endothelial cells, HUVEC treated with LO or Exo 20 μg/ml directly or with conditioned media from NAF previously exposed to either LO or Exo. After 6 h-8 h tube formation rate is recorded by imaging, and quantified by counting the branching points in randomly chosen fields from each condition.
as §1, with “Exo. Luciferase reporter assay for c-Myc promoter activation was performed in NAF transfected with c-Myc promoter or vector plasmid treated with either LO or Exo 20 μg/ml for 6 h in presence or absence of Dynasore 20 nM.” for “Exo.”, “directly in presence” for “directly”, “absence of Dynasore 20 nM.” for “with conditioned media from NAF previously exposed to either LO or Exo.”, “After for” for “After”

| SMILES | LO uptake (internalization, mean fluorescent intensity) (WPMY-1 cells) | LO uptake (internalization, mean fluorescent intensity) (WPMY-1 cells; listed as Dyn) | c-Myc activation induced by LO (luciferase reporter) (c-Myc) | tube formation (HUVEC) |
| --- | --- | --- | --- | --- |
| C=C1[C@@H](C)[C@H]2[C@H](Cc3ccccc3)NC(=O)[C@]23[C@H](OC(C)=O)/C=C/[C@@](C)(O)C(=O)[C@@H](C)C/C=C/[C@H]3[C@@H]1O [cytochalasin D] | partially reduced | – | – | – |
| O=C(N/N=C/c1ccc(O)c(O)c1)c1cc2ccccc2cc1O [dynasore] | significantly reduced | inhibited | reverted | significantly inhibited |
